Results on seven compounds are retold here after patent US20220402862A1 (Intellia Therapeutics, Inc., priority 2019, published 2022).

The nature of data set [1]: Dynamic light scattering of LNPs: Z-average diameter, number average diameter, PDI. The settings on record: LNP. The format is physicochemical. An outline of the steps: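 Values reported are the Z-average (intensity-weighted mean size), the number-average diameter and the PDI (spread of sizes, 0 = fully uniform). All three came from dynamic light scattering of LNP preparations after dilution in PBS.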

Data set [2] is described as follows: RNA encapsulation efficiency of LNPs (Ribogreen fluorescence assay). It counts as physicochemical. The settings on record: LNP; for Encapsulation (%): sg:mRNA 1:1, N/P about 6, amine lipid/DSPC/cholesterol/PEG-2k-DMG 50/9/38/3, Table 2, Experiments 2-20. The method, boiled down:
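Encapsulation efficiency is (Total RNA − Free RNA)/Total RNA. Free RNA was quantified by RiboGreen fluorescence (488/525 nm, ~10 min, RT, dark) in plain TE buffer; total RNA was quantified after LNP lysis with 0.2% Triton X-100, both against RNA standard curves.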

The subject of the next data set is mouse TTR gene. In words: In vivo editing in mouse liver, sgRNA targeting TTR (G282 or G502), % indel by NGS. Also noted: species or system CD-1 female mice. The settings on record: guide G502, Experiment 105. As to the method:
CD-1 female mice ranging from 6-10 weeks of age were used in each study. Animals were weighed and grouped according to body weight for preparing dosing solutions based on group average weight. LNPs were dosed via the lateral tail vein in a volume of 0.2 mL per animal (approximately 10 mL per kilogram body weight). The animals were periodically observed for adverse effects for at least 24 hours post dose. For studies measuring in vivo editing in liver, CD-1 female mice were dosed at 0.1 mg/kg unless otherwise noted. Animals were euthanized at 6 or 7 days by ex sanguination via cardiac puncture under isoflurane anesthesia. Liver tissue was collected from each animal for DNA extraction and analysis. Blood was collected into serum separator tubes or into tubes containing buffered sodium citrate for plasma as described herein. Cohorts of mice were measured for editing by Next-Generation Sequencing (NGS).
In brief, to quantitatively determine the efficiency of editing at the target location in the genome, genomic DNA was isolated and deep sequencing was utilized to identify the presence of insertions and deletions introduced by gene editing.
PCR primers were designed around the target site (e.g., within B2M), and the genomic area of interest was amplified. Additional PCR was performed according to the manufacturer's protocols (Illumina) to add the necessary chemistry for sequencing. The amplicons were sequenced on an Illumina MiSeq instrument. The reads were aligned to the mouse or rat reference genome (e.g., GRCm38) after eliminating those having low quality scores. The resulting files containing the reads were mapped to the reference genome (BAM files), where reads that overlapped the target region of interest were selected and the number of wild type reads versus the number of reads which contain an insertion, substitution, or deletion was calculated.
The editing percentage (e.g., the “indel efficiency” or “percent indels”) was defined as the total number of sequence reads with insertions or deletions over the total number of sequence reads, including wild type.
We assessed in vivo editing efficiency for materials delivered with formulations including various amine lipid compounds. Editing was measured using either G282 (SEQ ID No: 1) which targets the mouse TTR gene or G650 (SEQ ID No. 2) which targets the mouse B2M gene. Lipids described above were assessed for efficacy through in vivo editing experiments. LNPs were formulated at a 1:1 or 1:1.3 w/w ratio of sgRNA to Cas9 mRNA, and at an N/P ratio of about 6. Molar concentrations of lipids in the lipid component of the LNPs are used at mol % amine lipid/DSPC/cholesterol/PEG-2k-DMG of 50/9/38/3. The final LNPs were characterized to determine the encapsulation efficiency, polydispersity index, and average particle size according to the analytical methods provided above. Analysis of average particle size, polydispersity (PDI), total RNA content and encapsulation efficiency of RNA are shown in Table 2.
To assess whether the editing was dose responsive, experiments were performed in vivo at various LNP dose levels. Cas9 mRNA of Example 120 was formulated as LNPs with an sgRNA targeting TTR (G282, SEQ ID NO: 1; or G502, SEQ ID NO: 4).
We assessed in vivo delivery by measuring editing efficiency for materials delivered with formulations that included various amine lipid compounds. Cas9 mRNA (SEQ ID NO: 6) was formulated as LNPs with an sgRNA targetting the TTR mouse gene (SEQ ID NO: 4). LNPs were formulated at a 1:2 w/w ratio of sgRNA to Cas9 mRNA, and at an N/P ratio of about 6. Molar concentrations of lipids in the lipid component of the LNPs are used at mol % amine lipid/DSPC/cholesterol/PEG-2k-DMG of 50/9/38/3. The final LNPs compositions were characterized and analyzed as described in Example 120. Analysis of average particle size, polydispersity (PDI), total RNA content and encapsulation efficiency of RNA are shown in Table 6.

In the next data set the test system is Transthyretin (TTR). In words: Serum TTR ELISA in mice after LNP dosing. The format is in vivo, CD-1 female mice. An outline of the steps: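 Serum mouse TTR was quantified by ELISA at 10,000-fold dilution for 0.1 mg/kg and 10,000/2,500-fold for 0.3 mg/kg. Samples came from female CD-1 mice (6–10 weeks) killed 6 or 7 days after a single intravenous LNP dose, usually 0.1 mg/kg.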
For orientation: In an ELISA, binding on a coated surface is turned into a signal by an enzyme label.

A short description of data set [3]: pKa measurement of unformulated amine lipid (fluorescence, method of Jayaraman et al.). It counts as physicochemical. The settings on record: 100 μM in 0.1 M phosphate buffer, pH 2.0-12.0. As to the method: The pKa of each amine lipid was determined according to the method in Jayaraman, et al. (Angewandte Chemie, 2012) with the following adaptations. […] Lipid was diluted to 100 μM in 0.1 M phosphate buffer (Boston Bioproducts) where the pH ranged from 2.0-12.0. Fluorescence intensity was measured using excitation and emission wavelengths of 321 nm and 448 nm.

Where [4] appears, read: sg:mRNA 1:1, N/P about 6, 50/9/38/3, Table 2, Experiments 2-20.
[5] abbreviates: sg:mRNA 1:2, N/P 6.0, 50/9/38/3, Table 4, Experiment 105.
[6] abbreviates: mouse serum TTR relative to TSS control, guide G282 experiments.
Setting [7] is: mouse serum, guide G282 experiments, ELISA.

Values joined by “and” are separate entries in the source; they are usually repeats but may differ in a detail not shown here. Equal values may be shown once.

In the case of `CCCCC/C=C\C/C=C\CCCCCCCC(=O)OCC(COC(=O)CCC(OCCCCCCCC)OCCCCCCCC)COC(=O)OCCC1CCCN1C` (stereo not shown) [Compound 24, 3-((4,4-bis(octyloxy)butanoyl)oxy)-2-((((2-(1-methylpyrrolidin-2-yl)ethoxy)carbonyl)oxy)methyl)propyl (9Z,12Z)-octadeca-9,12-dienoate], the “Number mean (nm)” value is 61.34 nm and 66.88 nm and 63.16 nm in data set [1] (setting [4]); 72.95 nm in data set [1] (setting [5]). For the same compound, the PDI in data set [1] (setting [4]) was 0.027 and 0.033 and 0.025; in data set [1] (setting [5]), 0.029. In addition, the “Z-avg (nm)” value was 76.82 nm and 83.92 nm and 77.24 nm in data set [1] (setting [4]); 88.39 nm in data set [1] (setting [5]). Besides, the “Encapsulation (%)” value in data set [2] is 98% and 97%. Besides, the “% E” value in data set [2] (setting [5]) is 99%. For the same compound, the “Editing Mean % Indel” value in the data set with mouse TTR gene (LNP i.v. 0.03 mg/kg) was 11.34%; with mouse TTR gene (LNP i.v. 0.1 mg/kg) it was 40.54%. In addition, the “Serum TTR % TSS” value in the data set with Transthyretin (TTR) (setting [6]) came out at 46%; in the data set on Transthyretin (TTR) (mouse, LNP i.v. 0.03 mg/kg, guide G502, Experiment 105, relative to TSS control), 70%; in the data set on Transthyretin (TTR) (mouse, LNP i.v. 0.1 mg/kg, guide G502, Experiment 105, relative to TSS control), 38%. The “Serum TTR” value in the data set with Transthyretin (TTR) (setting [7]) is 397 µg/mL; in the data set on Transthyretin (TTR) (mouse, LNP i.v. 0.03 mg/kg, guide G502, Experiment 105) it was 772 µg/mL; in the data set on Transthyretin (TTR) (mouse, LNP i.v. 0.1 mg/kg, guide G502, Experiment 105) it was 420 µg/mL.
The term pKa denotes the pH at which an ionisable group is half protonated. Read a high pKa as a weaker acid or stronger base. Turning to `CCCCCCCCCCOC(=O)CCCCCCCCCC(=O)OCC(COC(=O)CCC(OCCCCCCCC)OCCCCCCCC)COC(=O)OCCCN(CC)CC` (stereo not shown) [Compound 90, 1-(3-((4,4-bis(octyloxy)butanoyl)oxy)-2-((((3-(diethylamino)propoxy)carbonyl)oxy)methyl)propyl) 11-decyl undecanedioate], in data set [1] (setting [4]), the “Number mean (nm)” value was found to be 81.15 nm, the PDI was 0.017 and the “Z-avg (nm)” value is on record as 99.62 nm. Moreover, the “Encapsulation (%)” value in data set [2] stood at 99%. Moreover, the pKa in data set [3] turned out to be 6.14. Besides, the “Serum TTR % TSS” value with Transthyretin (TTR) (setting [6]) is given as 67%. Further, in the data set on Transthyretin (TTR) (setting [7]), the “Serum TTR” value stood at 504 µg/mL.
Consider `CCCCCCCCCCOC(=O)CCCCCCCCCCCC(=O)OCC(COC(=O)CCC(OCCCCCCCC)OCCCCCCCC)COC(=O)OCCCN(CC)CC` (stereo not shown) [Compound 91, 1-(3-((4,4-bis(octyloxy)butanoyl)oxy)-2-((((3-(diethylamino)propoxy)carbonyl)oxy)methyl)propyl) 13-decyl tridecanedioate], for which, in data set [1] (setting [4]), the “Number mean (nm)” value was 75.67 nm, the PDI turned out to be 0.028 and the “Z-avg (nm)” value was 93.13 nm. For the same compound, in data set [2], the “Encapsulation (%)” value was 99%. The same compound displayed a pKa in data set [3] of 6.08. The “Serum TTR % TSS” value in the data set on Transthyretin (TTR) (setting [6]) was found to be 84%. Besides, the “Serum TTR” value with Transthyretin (TTR) (setting [7]) came to 633 µg/mL.
Take `CCCCCCCCCCCCOC(=O)CCCCCCCC(=O)OCC(COC(=O)CCC(OCCCCCCCC)OCCCCCCCC)COC(=O)OCCCN(CC)CC` (stereo not shown) [Compound 92, 1-(3-((4,4-bis(octyloxy)butanoyl)oxy)-2-((((3-(diethylamino)propoxy)carbonyl)oxy)methyl)propyl) 9-dodecyl nonanedioate]: in data set [1] (setting [4]), the “Number mean (nm)” value amounted to 77.35 nm, the PDI is 0.022 and the “Z-avg (nm)” value worked out at 93.69 nm. Also, in data set [2], the “Encapsulation (%)” value worked out at 99%. Further, the pKa in data set [3] stood at 6.16. Besides, the “Serum TTR % TSS” value with Transthyretin (TTR) (setting [6]) was 62%. For the same compound, the “Serum TTR” value with Transthyretin (TTR) (setting [7]) stood at 470 µg/mL.
For `CCCCCCCCCCCCCCOC(=O)CCCCCCCC(=O)OCC(COC(=O)CCC(OCCCCCCCC)OCCCCCCCC)COC(=O)OCCCN(CC)CC` (stereo not shown) [Compound 93, 1-(3-((4,4-bis(octyloxy)butanoyl)oxy)-2-((((3-(diethylamino)propoxy)carbonyl)oxy)methyl)propyl) 9-tetradecyl nonanedioate], in data set [1] (setting [4]), the “Number mean (nm)” value was 78.73 nm, the PDI came to 0.004 and the “Z-avg (nm)” value is listed as 95.19 nm. The “Encapsulation (%)” value in data set [2] is 98%. The compound also gave a pKa in data set [3] of 6.15. In the data set with Transthyretin (TTR) (setting [6]), the “Serum TTR % TSS” value is 88%. Also, the “Serum TTR” value in the data set on Transthyretin (TTR) (setting [7]) turned out to be 669 µg/mL.
As to `CCCCCCCCCC(CC)OC(=O)CCCCCCCC(=O)OCC(COC(=O)CCC(OCCCCCCCC)OCCCCCCCC)COC(=O)OCCCN(CC)CC` (stereo not shown) [Compound 95, 1-(3-((4,4-bis(octyloxy)butanoyl)oxy)-2-((((3-(diethylamino)propoxy)carbonyl)oxy)methyl)propyl) 9-(dodecan-3-yl) nonanedioate], in data set [1] (setting [4]), the “Number mean (nm)” value amounted to 74.5 nm, the PDI amounted to 0.029 and the “Z-avg (nm)” value is recorded as 91.1 nm. In addition, in data set [2], the “Encapsulation (%)” value worked out at 99%. Further, the pKa in data set [3] was 6.14. In the data set with Transthyretin (TTR) (setting [6]), the “Serum TTR % TSS” value amounted to 54%. For the same compound, the “Serum TTR” value with Transthyretin (TTR) (setting [7]) was 408 µg/mL.
For `CCCCC/C=C\C/C=C\CCCCCCCC(=O)OCC(C)(COC(=O)CCC(OCCCCCCCC)OCCCCCCCC)COC(=O)OCCCN(CC)CC` (stereo not shown) [Compound 96, 3-((4,4-bis(octyloxy)butanoyl)oxy)-2-((((3-(diethylamino)propoxy)carbonyl)oxy)methyl)-2-methylpropyl (9Z,12Z)-octadeca-9,12-dienoate], in data set [1] (setting [4]), the “Number mean (nm)” value is on record as 65.94 nm, the PDI is 0.019 and the “Z-avg (nm)” value was 81.55 nm. Further, in data set [2], the “Encapsulation (%)” value is reported as 98%. The compound also returned a pKa in data set [3] of 5.76. Also, the “Serum TTR % TSS” value in the data set on Transthyretin (TTR) (setting [6]) was 58%. The “Serum TTR” value in the data set on Transthyretin (TTR) (setting [7]) came to 449 µg/mL.
